Experimental data from patent US12570642B2, “GLP-IR modulating compounds” (Gilead Sciences, Inc., priority 2021, dated 2026).
Where two headings read alike, the source gives them in different places.

Key:
GLP-1R = GLP-1R (Homo sapiens, UniProt P43220); assay: GLP-1R Activation - cAMP Assay; assay type: cell-based; conditions: cAMP increase in CHO cells stably expressing GLP-1R; each compound run on one of the two cAMP assays (Assay 1 or Assay 2, not specified)
Summary of the method: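 CHO cells stably expressing GLP-1R, plated at 1,000 cells/well overnight, then equilibrated 1 h in HBSS with 20 mM Hepes and 0.1% BSA. Agonist added as 10-point dose response for 30 min at 37 °C. cAMP measured by HTRF (Cisbio Gs Dynamic kit); EC50 from sigmoidal fit.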

[1] = Pharmacokinetic (PK) studies, in vivo monkey oral PK; set-up: species or system Cynomolgus monkeys; conditions: Cynomolgus monkey; for Tmax / AUC(0-t) / Cmax / bioavailability: plasma; for AUC(0-t): read-out: AUC0-24 (Arbitrary units); for Cmax: read-out: Cmax (Arbitrary unit); for bioavailability: read-out: F % (oral bioavailability)
Experimental: Pharmacokinetic (PK) Studies Test Articles:
Examples 60, 115, 117, and 119 were tested along with comparative examples CE-1 and CE-2.
Dose Formulation Preparation
Compounds CE-2, Example 60, Example 115, Example 117, and Example 119 were combined with a mixture of 10% NMP (v:v) and 90% PEG300 (v:v), and the mixture was stirred until a homogeneous solution was obtained.
Compound CE-1 was combined with a mixture of 15% 2-hydroxypropyl-β-cyclodextrin (w:v) and 85% Milli-Q water (v:v), and the mixture was stirred until a homogeneous solution was obtained.
Young adult non-naive Cynomolgus monkeys with weight about 2.5-5 kg (n=1-3/test article/route) were fasted overnight and then dosed with either CE-1, CE2, Example 60, Example 115, Example 117 or Example 119. Food was supplied approximately 4 hours post dose and animals were provided with free access to water all the time. Animals were restrained at designated time points for blood sampling. Approximately 500 μL of blood samples was taken via cephalic or saphenous vein into EDTA-K2 tubes. For oral administration (PO): blood samples were generally collected pre-dose, and at 15 min, 30 min, 1 hr., 2 hr., 4 hr., 8 hr., 12 hr., and 24 hr. time points after dosing. Blood was be maintained on wet ice, in chilled cryoracks, or at approximately 5° C. prior to centrifugation to obtain plasma. Centrifugation was conducted within 1 hour of collection. Plasma (approximately 200 μL) was placed into a micronic tubes containing 4 μL of formic acid (the final concentration of formic acid in plasma was approximately 2%) and samples were vortex mixed. Samples were maintained on dry ice prior to storage at approximately −70° C.
LC-MS/MS assays were utilized to quantify the concentration of the test articles in plasma as follows.
50 μL plasma sample was mixed with 350 μL of ACN combined with an internal standard. The mixture was then vortexed for about 1-5 min, and centrifuged at about 4,000-5,800 rpm for about […]. An aliquot of 1 μL supernatant was used for LC-MS/MS analysis.
MS conditions: A Sciex API 6500 equipped with electrospray ionization in the positive ion selected reaction monitoring mode was used for detection.
HPLC conditions • Mobile Phase A: H2O-0.11% Formic Acid • Mobile Phase B: ACN-0.1% Formic Acid
• Column: Phenomenex Kinetex XBCl8 (2.1×50 mm, 2.6 μm) with a flow rate of 1.20 mL/min • Column temperature: 60° C. • Retention time: approximately between 0.85 to 1.05 • min Pharmacokinetics (PK) Parameters
Pharmacokinetics parameters, including area under the curve (AUC0-24), maximum plasma concentration (Cmax), time to reach maximum plasma concentration (Tmax), oral bioavailability (F %), etc., were calculated using Dotmatics software in non-compartmental model.

Sequence of GLP-1R (P43220 24-463): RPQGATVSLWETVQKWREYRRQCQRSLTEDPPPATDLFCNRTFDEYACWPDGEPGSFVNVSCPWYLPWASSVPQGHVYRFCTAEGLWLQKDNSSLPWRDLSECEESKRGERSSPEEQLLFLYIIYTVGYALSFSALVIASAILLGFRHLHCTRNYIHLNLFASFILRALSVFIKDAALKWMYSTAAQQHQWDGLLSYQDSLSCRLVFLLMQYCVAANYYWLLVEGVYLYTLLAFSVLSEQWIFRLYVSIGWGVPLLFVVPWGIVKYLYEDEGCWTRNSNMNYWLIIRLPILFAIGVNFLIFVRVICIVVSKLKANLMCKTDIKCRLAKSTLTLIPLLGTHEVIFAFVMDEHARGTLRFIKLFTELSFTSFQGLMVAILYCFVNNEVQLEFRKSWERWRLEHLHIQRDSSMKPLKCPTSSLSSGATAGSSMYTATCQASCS

CC1(C)COC[C@H]1n1c(Cc2cc(F)c(-c3ccnc(OCc4ccc(Cl)cc4F)n3)cc2F)nc2c(F)cc(C(=O)O)cc21 [Example 117, (S)-2-(4-(2-((4-chloro-2-fluorobenzyl)oxy)pyrimidin-4-yl)-2,5-difluorobenzyl)-1-(4,4-dimethyltetrahydrofuran-3-yl)-4-fluoro-1H-benzo[d]imidazole-6-carboxylic Acid]
EC50 (GLP-1R): 0.044 nM | Tmax ([1]; single oral dose 2 mg/kg): 4.7 ± 2.3 h | AUC(0-t) ([1]; single oral dose 2 mg/kg): 12.8 ± 4.01 µM·h | Cmax ([1]; single oral dose 2 mg/kg): 1600 ± 832 nM | bioavailability ([1]; single oral dose 2 mg/kg): 52.2 ± 16.3%

CC1(C)COC[C@H]1n1c(Cc2cc(F)c(-c3cccc(OCc4ccc(C#N)cc4F)n3)cc2F)nc2ccc(C(=O)O)cc21 [Example 60]
EC50 (GLP-1R): 0.04 nM | Tmax ([1]; single oral dose 2 mg/kg): 1.5 ± 0.9 h | AUC(0-t) ([1]; single oral dose 2 mg/kg): 5.57 ± 2.19 µM·h | Cmax ([1]; single oral dose 2 mg/kg): 385 ± 82 nM | bioavailability ([1]; single oral dose 2 mg/kg): 47.6 ± 12.3%

CC1(C)COC[C@H]1n1c(Cc2cc(F)c(-c3cccc(OCc4ccc(Cl)cc4F)n3)cc2F)nc2ccc(C(=O)O)cc21 [Example 115]
EC50 (GLP-1R): 0.122 nM | Tmax ([1]; single oral dose 2 mg/kg): 2.7 ± 1.2 h | AUC(0-t) ([1]; single oral dose 2 mg/kg): 17.9 ± 2.04 µM·h | Cmax ([1]; single oral dose 2 mg/kg): 1540 ± 166 nM | bioavailability ([1]; single oral dose 2 mg/kg): 42 ± 16.5%

N#Cc1ccc(COc2cccc(-c3cc(F)c(Cc4nc5ccc(C(=O)O)cc5n4C[C@@H]4CCO4)cc3F)n2)c(F)c1 [CE-2, (S)-2-(4-(6-((4-cyano-2-fluorobenzyl)oxy)pyridin-2-yl)-2,5-difluorobenzyl)-1-(oxetan-2-ylmethyl)-1H-benzo[d]imidazole-6-carboxylic acid, reference compound]
duration of exposure ([1]; single oral dose 2 mg/kg): sustained exposures over 24 h | Tmax ([1]; single oral dose 2 mg/kg): 4 ± 2 h | AUC(0-t) ([1]; single oral dose 2 mg/kg): 2.81 ± 1.33 µM·h | Cmax ([1]; single oral dose 2 mg/kg): 224 ± 130 nM | bioavailability ([1]; single oral dose 2 mg/kg): 27.4%

N#Cc1ccc(COc2cccc(C3CCN(Cc4nc5ccc(C(=O)O)cc5n4C[C@@H]4CCO4)CC3)n2)c(F)c1 [CE-1, (S)-2-((4-(6-((4-cyano-2-fluorobenzyl)oxy)pyridin-2-yl)piperidin-1-yl)methyl)-1-(oxetan-2-ylmethyl)-1H-benzo[d]imidazole-6-carboxylic acid, reference compound]
plasma concentrations ([1]; over a period of 12 h after a single oral dose of 1 mg/kg): < 10 nM | Tmax ([1]; single oral dose 1 mg/kg): 2.2 ± 1.8 h | AUC(0-t) ([1]; single oral dose 1 mg/kg): 0.0477 ± 0.0133 µM·h | Cmax ([1]; single oral dose 1 mg/kg): 4.5 ± 0.8 nM | plasma exposure after the 12 h period ([1]; single oral dose of 1 mg/kg, after 12 h): below the detection limit | bioavailability ([1]; single oral dose 1 mg/kg): 2.5%

Cc1cc(Cc2nc3ccc(C(=O)O)cc3n2[C@@H]2COCC2(C)C)c(Cl)cc1-c1cccc(OCc2ccc(C#N)cc2F)n1 [Example 141, (S)-2-(2-chloro-4-(6-((4-cyano-2-fluorobenzyl)oxy)pyridin-2-yl)-5-methylbenzyl)-1-(4,4-dimethyltetrahydrofuran-3-yl)-1H-benzo[d]imidazole-6-carboxylic Acid]
EC50 (GLP-1R): 0.079 nM

CC1(C)COC[C@H]1n1c(Cn2cc(F)c(-c3ccc(F)c(OCc4ccc(Cl)cc4F)n3)cc2=O)nc2c(F)cc(C(=O)O)cc21 [Example 131, (S)-2-((6-((4-chloro-2-fluorobenzyl)oxy)-5,5′-difluoro-2′-oxo-[2,4′-bipyridin]-1′(2′H)-yl)methyl)-1-(4,4-dimethyltetrahydrofuran-3-yl)-4-fluoro-1H-benzo[d]imidazole-6-carboxylic Acid]
EC50 (GLP-1R): 0.145 nM

Cc1cc(Cc2nc3c(F)cc(C(=O)O)cc3n2[C@@H]2COCC2(C)C)c(F)cc1-c1ccnc(OCc2ccc(C#N)cc2F)n1 [Example 265, (S)-2-(4-(2-((4-cyano-2-fluorobenzyl)oxy)pyrimidin-4-yl)-2-fluoro-5-methylbenzyl)-1-(4,4-dimethyltetrahydrofuran-3-yl)-4-fluoro-1H-benzo[d]imidazole-6-carboxylic acid]
EC50 (GLP-1R): 0.171 nM

CC1(C)COC[C@H]1n1c(Cc2c(F)cc(-c3cccc(OCc4ccc(C#N)cc4)n3)cc2F)nc2ccc(C(=O)O)cc21 [Example 362, (S)-2-(4-(6-((4-cyanobenzyl)oxy)pyridin-2-yl)-2,6-difluorobenzyl)-1-(4,4-dimethyltetrahydrofuran-3-yl)-1H-benzo[d]imidazole-6-carboxylic acid]
EC50 (GLP-1R): 0.266 nM

COCCn1c(Cc2cc(F)c(-c3cccc(OCc4ccc(-c5cn(C)nn5)nc4)n3)cc2F)nc2ccc(C(=O)O)cc21 [Example 107, 2-(2,5-difluoro-4-(6-((6-(1-methyl-1H-1,2,3-triazol-4-yl)pyridin-3-yl)methoxy)pyridin-2-yl)benzyl)-1-(2-methoxyethyl)-1H-benzo[d]imidazole-6-carboxylic Acid]
EC50 (GLP-1R): 1.4 nM

CC1(C)COC[C@H]1n1c(Cc2cc(F)c(-c3cccc(OCc4ccc5c(c4)CN(S(C)(=O)=O)C5)n3)cc2F)nc2ccc(C(=O)O)cc21 [Example 248, (S)-2-(2,5-difluoro-4-(6-((2-(methylsulfonyl)isoindolin-5-yl)methoxy)pyridin-2-yl)benzyl)-1-(4,4-dimethyltetrahydrofuran-3-yl)-1H-benzo[d]imidazole-6-carboxylic acid]
EC50 (GLP-1R): 0.186 nM

CC1(C)COC[C@H]1n1c(Cc2ccc(-c3ccc(F)c(OCc4ccc(Cl)cc4F)n3)cc2F)nc2ccc(C(=O)O)cc21 [Example 332, (S)-2-(4-(6-((4-chloro-2-fluorobenzyl)oxy)-5-fluoropyridin-2-yl)-2-fluorobenzyl)-1-(4,4-dimethyltetrahydrofuran-3-yl)-1H-benzo[d]imidazole-6-carboxylic acid]
EC50 (GLP-1R): 0.159 nM

COCCn1c(Cc2cc(F)c(-c3cccc(OCc4ccc(C(C)(F)F)cc4)n3)cc2F)nc2ccc(C(=O)O)cc21 [Example 96, 2-(4-(6-((4-(1,1-difluoroethyl)benzyl)oxy)pyridin-2-yl)-2,5-difluorobenzyl)-1-(2-methoxyethyl)-1H-benzo[d]imidazole-6-carboxylic Acid]
EC50 (GLP-1R): 0.98 nM

CC1(C)CC(n2c(Cc3cc(F)c(-c4cccc(OCc5ccc(C#N)cc5F)n4)cc3F)nc3ccc(C(=O)O)cc32)C(C)(C)O1 (stereo not drawn) [Example 199, 2-(4-(6-((4-cyano-2-fluorobenzyl)oxy)pyridin-2-yl)-2,5-difluorobenzyl)-1-(2,2,5,5-tetramethyltetrahydrofuran-3-yl)-1H-benzo[d]imidazole-6-carboxylic acid]
EC50 (GLP-1R): 90.9 nM

CC1(C)COC[C@H]1n1c(Cc2cc(F)c(-c3cccc(OCc4c(F)cc(Cl)cc4F)n3)cc2F)nc2ccc(C(=O)O)cc21 [Example 489, (S)-2-(4-(6-((4-chloro-2,6-difluorobenzyl)oxy)pyridin-2-yl)-2,5-difluorobenzyl)-1-(4,4-dimethyltetrahydrofuran-3-yl)-1H-benzo[d]imidazole-6-carboxylic acid]
EC50 (GLP-1R): 0.342 nM

CC1(C)COC[C@H]1n1c(Cc2c(F)cc(-c3ccc(F)c(OCc4ccc(Cl)cc4F)n3)cc2F)nc2c(F)cc(C(=O)O)cc21 [Example 306, (S)-2-(4-(6-((4-chloro-2-fluorobenzyl)oxy)-5-fluoropyridin-2-yl)-2,6-difluorobenzyl)-1-(4,4-dimethyltetrahydrofuran-3-yl)-4-fluoro-1H-benzo[d]imidazole-6-carboxylic acid]
EC50 (GLP-1R): 0.123 nM

COCCn1c(Cc2cc(F)c(-c3ccnc(OCc4cnc(-n5ccnn5)cc4Cl)n3)cc2F)nc2ccc(C(=O)O)cc21 [Example 389, 2-(4-(2-((4-chloro-6-(1H-1,2,3-triazol-1-yl)pyridin-3-yl)methoxy)pyrimidin-4-yl)-2,5-difluorobenzyl)-1-(2-methoxyethyl)-1H-benzo[d]imidazole-6-carboxylic acid]
EC50 (GLP-1R): 0.55 nM

Cc1cc(Cc2nc3ccc(C(=O)O)cc3n2[C@@H]2COCC2(C)C)c(Cl)cc1-c1ccc(F)c(OCc2ccc(C#N)cc2F)n1 [Example 140, (S)-2-(2-chloro-4-(6-((4-cyano-2-fluorobenzyl)oxy)-5-fluoropyridin-2-yl)-5-methylbenzyl)-1-(4,4-dimethyltetrahydrofuran-3-yl)-1H-benzo[d]imidazole-6-carboxylic Acid]
EC50 (GLP-1R): 0.158 nM
